#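 Each compound was tested at five concentrations against cells in 96-well plates for 48 hours. Abbreviation: GI50, concentration required for 50% inhibition of growth. At the TGI there is no net growth.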
# Assays:
# Assay in all cases: inhibition of tumour cell growth, NCI panel, 48 h
# A498 renal = test system: A498 renal
# SR leukemia = test system: SR leukemia
# LOX IMVI melanoma = test system: LOX IMVI melanoma
# HL-60(TB) leukemia = test system: HL-60(TB) leukemia
# RXF 393 renal = test system: RXF 393 renal
# RPMI-8226 leukemia = test system: RPMI-8226 leukemia
# A549 NSCLC = test system: A549 NSCLC
# UACC-257 melanoma = test system: UACC-257 melanoma
# ACHN renal = test system: ACHN renal
# MCF7 breast = test system: MCF7 breast
# NCI-H23 lung = test system: NCI-H23 lung
# KM12 colon = test system: KM12 colon
# HCC-2998 colon = test system: HCC-2998 colon
# SF-539 CNS = test system: SF-539 CNS
# K-562 leukemia = test system: K-562 leukemia
# MDA-MB-231 breast = test system: MDA-MB-231 breast
# HOP-62 NSCLC = test system: HOP-62 NSCLC
# U251 CNS = test system: U251 CNS
# SNB-75 CNS = test system: SNB-75 CNS
# 786-0 renal = test system: 786-0 renal
# CCRF-CEM leukemia = test system: CCRF-CEM leukemia
# DU-145 prostate = test system: DU-145 prostate
# OVCAR-3 ovarian = test system: OVCAR-3 ovarian
# OVCAR-8 ovarian = test system: OVCAR-8 ovarian
# HS 578T breast = test system: HS 578T breast
# SF-268 CNS = test system: SF-268 CNS
# NCI-H460 lung = test system: NCI-H460 lung
# HCT-116 colon = test system: HCT-116 colon
# HCT-15 colon = test system: HCT-15 colon
# BT-549 breast = test system: BT-549 breast
# OVCAR-4 ovarian = test system: OVCAR-4 ovarian
# HOP-92 NSCLC = test system: HOP-92 NSCLC
# COLO 205 colon = test system: COLO 205 colon
# SK-MEL-5 melanoma = test system: SK-MEL-5 melanoma
# SW-620 colon = test system: SW-620 colon
# MDA-MB-435 = test system: MDA-MB-435
# M14 melanoma = test system: M14 melanoma
# SK-MEL-28 melanoma = test system: SK-MEL-28 melanoma
# TK-10 renal = test system: TK-10 renal
# UACC-62 melanoma = test system: UACC-62 melanoma
# NCI-H226 lung = test system: NCI-H226 lung
# OVCAR-5 ovarian = test system: OVCAR-5 ovarian
# IGROV1 ovarian = test system: IGROV1 ovarian
# SK-OV-3 ovarian = test system: SK-OV-3 ovarian
# MOLT-4 leukemia = test system: MOLT-4 leukemia
# T-47D breast = test system: T-47D breast
# NCI/ADR-RES ovarian = test system: NCI/ADR-RES ovarian
# NCI-H522 lung = test system: NCI-H522 lung
# SNB-19 CNS = test system: SNB-19 CNS
# UO-31 renal = test system: UO-31 renal
# CAKI-1 renal = test system: CAKI-1 renal
# SN12C renal = test system: SN12C renal
# SF-295 CNS = test system: SF-295 CNS
# MALME-3M melanoma = test system: MALME-3M melanoma
structure (smiles),measurement,setting,value
O=[N+]([O-])c1ccc(CI)cc1,GI50,A498 renal,2.29 µM
same,TGI,A498 renal,9.56 µM
same,GI50,SR leukemia,2.24 µM
same,TGI,SR leukemia,10.3 µM
same,GI50,LOX IMVI melanoma,1.3 µM
same,TGI,LOX IMVI melanoma,2.9 µM
same,GI50,HL-60(TB) leukemia,2.24 µM
same,TGI,HL-60(TB) leukemia,5.22 µM
same,GI50,RXF 393 renal,2.44 µM
same,TGI,RXF 393 renal,8.74 µM
same,GI50,RPMI-8226 leukemia,2.3 µM
same,TGI,RPMI-8226 leukemia,5.68 µM
same,GI50,A549 NSCLC,3.68 µM
same,TGI,A549 NSCLC,14.5 µM
same,GI50,UACC-257 melanoma,3.47 µM
same,TGI,UACC-257 melanoma,15.5 µM
same,GI50,ACHN renal,1.96 µM
same,TGI,ACHN renal,4.12 µM
same,GI50,MCF7 breast,3.08 µM
same,TGI,MCF7 breast,17.2 µM
same,GI50,NCI-H23 lung,3.32 µM
same,TGI,NCI-H23 lung,12.4 µM
same,GI50,KM12 colon,3.52 µM
same,TGI,KM12 colon,12 µM
same,GI50,HCC-2998 colon,3.43 µM
same,TGI,HCC-2998 colon,11.8 µM
same,GI50,SF-539 CNS,2.66 µM
same,TGI,SF-539 CNS,8.19 µM
same,GI50,K-562 leukemia,0.404 µM
same,TGI,K-562 leukemia,2.95 µM
same,GI50,MDA-MB-231 breast,1.23 µM
same,TGI,MDA-MB-231 breast,4.08 µM
same,GI50,HOP-62 NSCLC,3.38 µM
same,TGI,HOP-62 NSCLC,12.5 µM
same,GI50,U251 CNS,2.91 µM
same,TGI,U251 CNS,10.4 µM
same,GI50,SNB-75 CNS,3.27 µM
same,TGI,SNB-75 CNS,15.5 µM
same,GI50,786-0 renal,4.71 µM
same,TGI,786-0 renal,16.4 µM
same,GI50,CCRF-CEM leukemia,0.518 µM
same,TGI,CCRF-CEM leukemia,2.59 µM
same,GI50,DU-145 prostate,2.78 µM
same,TGI,DU-145 prostate,7.08 µM
same,GI50,OVCAR-3 ovarian,2.4 µM
same,TGI,OVCAR-3 ovarian,5.41 µM
same,GI50,OVCAR-8 ovarian,3.71 µM
same,TGI,OVCAR-8 ovarian,13.3 µM
same,GI50,HS 578T breast,3.53 µM
same,TGI,HS 578T breast,24.2 µM
same,GI50,SF-268 CNS,4.02 µM
same,TGI,SF-268 CNS,15.2 µM
same,GI50,NCI-H460 lung,3.2 µM
same,TGI,NCI-H460 lung,10.5 µM
same,GI50,HCT-116 colon,0.9 µM
same,TGI,HCT-116 colon,2.95 µM
same,GI50,HCT-15 colon,1.17 µM
same,TGI,HCT-15 colon,3.76 µM
same,GI50,BT-549 breast,3.54 µM
same,TGI,BT-549 breast,10.8 µM
same,GI50,OVCAR-4 ovarian,3.6 µM
same,TGI,OVCAR-4 ovarian,18.6 µM
same,GI50,HOP-92 NSCLC,4.25 µM
same,TGI,HOP-92 NSCLC,16.5 µM
same,GI50,COLO 205 colon,2 µM
same,TGI,COLO 205 colon,3.76 µM
same,GI50,SK-MEL-5 melanoma,1.99 µM
same,TGI,SK-MEL-5 melanoma,4.41 µM
same,GI50,SW-620 colon,0.803 µM
same,TGI,SW-620 colon,3.22 µM
same,GI50,MDA-MB-435,2.89 µM
same,TGI,MDA-MB-435,9.62 µM
same,GI50,M14 melanoma,3.38 µM
same,TGI,M14 melanoma,13.5 µM
same,GI50,SK-MEL-28 melanoma,5.15 µM
same,TGI,SK-MEL-28 melanoma,18.2 µM
same,GI50,TK-10 renal,1.85 µM
same,TGI,TK-10 renal,3.32 µM
same,GI50,UACC-62 melanoma,2.94 µM
same,TGI,UACC-62 melanoma,12.2 µM
same,GI50,NCI-H226 lung,5.66 µM
same,TGI,NCI-H226 lung,23.5 µM
same,GI50,OVCAR-5 ovarian,6.2 µM
same,TGI,OVCAR-5 ovarian,20.4 µM
same,GI50,IGROV1 ovarian,4.31 µM
same,TGI,IGROV1 ovarian,14.8 µM
same,GI50,SK-OV-3 ovarian,4.53 µM
same,TGI,SK-OV-3 ovarian,15.5 µM
same,GI50,MOLT-4 leukemia,1.32 µM
same,TGI,MOLT-4 leukemia,7.21 µM
same,GI50,T-47D breast,2.21 µM
same,TGI,T-47D breast,5.17 µM
same,GI50,NCI/ADR-RES ovarian,3.15 µM
same,TGI,NCI/ADR-RES ovarian,11.2 µM
same,GI50,NCI-H522 lung,1.41 µM
same,TGI,NCI-H522 lung,3.02 µM
same,GI50,SNB-19 CNS,3.03 µM
same,TGI,SNB-19 CNS,14.4 µM
same,GI50,UO-31 renal,1.79 µM
same,TGI,UO-31 renal,3.59 µM
same,GI50,CAKI-1 renal,1.91 µM
same,TGI,CAKI-1 renal,3.98 µM
same,GI50,SN12C renal,2 µM
same,TGI,SN12C renal,5.39 µM
same,GI50,SF-295 CNS,3.76 µM
same,TGI,SF-295 CNS,13.7 µM
same,GI50,MALME-3M melanoma,2.15 µM
same,TGI,MALME-3M melanoma,4.63 µM

# Reference: PubChem BioAssay (NCI)
